We go through 29 compounds from patent US12065436B2, “Cardiac sarcomere inhibitors” (Cytokinetics, Inc., priority 2018, dated 2024).

This assay concerns the target bovine cardiac myofibrils (full-length cardiac myosin ATPase in the native sarcomere) (Bos taurus (Bovine), UniProt Q9BE39). Nature of the assay: Skinned bovine cardiac myofibril ATPase assay (PK/LDH-coupled). Type of assay: biochemical. The note with it: Ca2+ activating to 75% of maximal rate; for CDMF75 IC15: concentration giving 15% inhibition; for IC50: read-out: CDMF75 IC50. Summed up:
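Triton-skinned bovine left-ventricle myofibrils (1 mg/mL) in PM 12 buffer (12 mM PIPES, 2 mM MgCl2, pH 6.8) with 50 μM ATP, 0.6 mM EGTA and CaCl2 set for 50% or 75% activation. Steady-state ATPase inhibition followed by PK/LDH-coupled NADH oxidation at 340 nm.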

The IC50 is the concentration that gives 50% inhibition.

Structures are written as SMILES.

Chain of bovine cardiac myofibrils (full-length cardiac myosin ATPase in the native sarcomere) (Q9BE39 whole entry): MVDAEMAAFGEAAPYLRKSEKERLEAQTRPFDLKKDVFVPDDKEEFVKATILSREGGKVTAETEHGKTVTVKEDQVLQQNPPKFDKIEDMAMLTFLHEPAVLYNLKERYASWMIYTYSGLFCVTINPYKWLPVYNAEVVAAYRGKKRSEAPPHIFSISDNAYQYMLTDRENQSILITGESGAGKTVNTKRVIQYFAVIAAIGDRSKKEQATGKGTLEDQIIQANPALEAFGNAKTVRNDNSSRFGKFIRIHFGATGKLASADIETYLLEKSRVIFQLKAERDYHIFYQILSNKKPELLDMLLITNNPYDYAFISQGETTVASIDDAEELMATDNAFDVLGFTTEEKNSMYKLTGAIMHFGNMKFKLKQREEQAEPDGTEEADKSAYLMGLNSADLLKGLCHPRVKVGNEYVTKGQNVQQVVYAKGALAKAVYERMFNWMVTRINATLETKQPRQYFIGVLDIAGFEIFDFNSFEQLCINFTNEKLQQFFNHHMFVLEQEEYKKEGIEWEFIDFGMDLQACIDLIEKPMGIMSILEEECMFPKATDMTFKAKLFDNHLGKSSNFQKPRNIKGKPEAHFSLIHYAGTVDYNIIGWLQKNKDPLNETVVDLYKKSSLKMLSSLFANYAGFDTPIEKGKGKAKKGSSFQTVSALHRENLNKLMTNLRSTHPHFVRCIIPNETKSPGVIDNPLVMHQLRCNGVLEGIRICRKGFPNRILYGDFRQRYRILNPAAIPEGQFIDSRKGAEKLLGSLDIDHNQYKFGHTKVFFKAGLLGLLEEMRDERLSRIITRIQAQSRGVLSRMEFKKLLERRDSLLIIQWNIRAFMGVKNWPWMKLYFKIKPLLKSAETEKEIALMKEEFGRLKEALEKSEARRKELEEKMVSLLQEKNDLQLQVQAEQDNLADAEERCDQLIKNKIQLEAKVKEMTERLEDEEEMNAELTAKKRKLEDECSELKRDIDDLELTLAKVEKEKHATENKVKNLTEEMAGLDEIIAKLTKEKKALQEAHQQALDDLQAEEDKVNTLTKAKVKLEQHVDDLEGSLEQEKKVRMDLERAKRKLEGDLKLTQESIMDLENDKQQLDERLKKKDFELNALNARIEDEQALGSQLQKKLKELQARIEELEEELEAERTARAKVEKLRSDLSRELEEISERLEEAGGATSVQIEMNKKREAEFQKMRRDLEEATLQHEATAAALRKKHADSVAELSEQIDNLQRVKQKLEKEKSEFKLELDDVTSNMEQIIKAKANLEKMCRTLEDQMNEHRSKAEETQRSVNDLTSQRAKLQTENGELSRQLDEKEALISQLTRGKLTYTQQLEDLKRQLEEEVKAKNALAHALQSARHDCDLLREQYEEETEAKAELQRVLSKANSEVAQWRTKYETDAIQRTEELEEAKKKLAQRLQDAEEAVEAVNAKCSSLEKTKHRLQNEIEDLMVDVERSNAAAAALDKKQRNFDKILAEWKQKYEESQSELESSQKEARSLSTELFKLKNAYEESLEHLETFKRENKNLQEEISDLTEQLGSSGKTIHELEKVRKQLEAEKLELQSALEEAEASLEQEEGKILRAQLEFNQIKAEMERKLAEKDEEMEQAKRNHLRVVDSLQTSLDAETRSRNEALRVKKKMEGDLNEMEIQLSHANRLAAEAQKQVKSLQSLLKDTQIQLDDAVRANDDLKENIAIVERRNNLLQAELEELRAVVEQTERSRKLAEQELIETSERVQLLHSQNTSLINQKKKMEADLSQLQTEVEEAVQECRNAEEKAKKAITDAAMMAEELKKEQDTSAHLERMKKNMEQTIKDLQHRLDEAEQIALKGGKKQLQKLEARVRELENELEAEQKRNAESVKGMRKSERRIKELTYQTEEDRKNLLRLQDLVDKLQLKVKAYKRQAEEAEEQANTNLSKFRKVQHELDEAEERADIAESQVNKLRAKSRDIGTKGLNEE
Chain of bovine cardiac myofibrils (full-length cardiac myosin ATPase in the native sarcomere) (P85100 whole entry partner): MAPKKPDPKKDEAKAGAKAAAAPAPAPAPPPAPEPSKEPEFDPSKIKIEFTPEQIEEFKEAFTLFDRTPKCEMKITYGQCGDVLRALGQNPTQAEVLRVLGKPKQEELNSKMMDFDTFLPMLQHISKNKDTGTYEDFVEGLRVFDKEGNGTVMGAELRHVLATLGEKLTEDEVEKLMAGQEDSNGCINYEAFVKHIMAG
Chain of bovine cardiac myofibrils (full-length cardiac myosin ATPase in the native sarcomere) (Q3SZE5 whole entry partner): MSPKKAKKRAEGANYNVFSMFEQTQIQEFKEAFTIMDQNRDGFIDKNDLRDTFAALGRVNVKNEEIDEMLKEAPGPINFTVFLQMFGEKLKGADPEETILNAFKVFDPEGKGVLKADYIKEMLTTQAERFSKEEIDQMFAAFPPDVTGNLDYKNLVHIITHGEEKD

Take `Cc1cc(C(=O)N[C@@H]2CCc3cc(-c4cnc(C)o4)ccc32)ccn1` [Compound 135, (R)-2-methyl-N-(5-(2-methyloxazol-5-yl)-2,3-dihydro-1H-inden-1-yl)isonicotinamide]: the “CDMF75 IC15” value was determined as 39.2 µM and the IC50 is > 39.2 µM.

`COCCn1cc(C(=O)N[C@@H]2CCc3cc(-c4noc(C(F)F)n4)ccc32)cn1` [Compound 529, (R)-N-(5-(5-(difluoromethyl)-1,2,4-oxadiazol-3-yl)-2,3-dihydro-1H-inden-1-yl)-1-(2-methoxyethyl)-1H-pyrazole-4-carboxamide]: the “CDMF75 IC15” value stood at 1.8 µM and the IC50 came to 6.8 µM.

For `O=C(N[C@@H]1CCc2cc(-c3noc(C(F)F)n3)ccc21)c1cc(O)no1` [Compound 674, (R)-N-(5-(5-(difluoromethyl)-1,2,4-oxadiazol-3-yl)-2,3-dihydro-1H-inden-1-yl)-3-hydroxyisoxazole-5-carboxamide], the “CDMF75 IC15” value amounted to 1.9 µM and the IC50 came to 7.4 µM.

Consider `[2H]C([2H])([2H])c1nc(-c2ccc3c(c2)CC[C@H]3NC(=O)c2cnn(CCOC)c2)no1` [Compound 514, (R)-1-(2-methoxyethyl)-N-(5-(5-(methyl-d3)-1,2,4-oxadiazol-3-yl)-2,3-dihydro-1H-inden-1-yl)-1H-pyrazole-4-carboxamide], for which the “CDMF75 IC15” value stood at 2.7 µM and the concentration for half-maximal inhibition (IC50) stood at 11 µM.

On to `Cc1ncc(C(=O)NC2CCc3cc(-c4noc(C(F)F)n4)ccc32)o1` (stereo not shown) [Compound 9, N-(5-(5-(difluoromethyl)-1,2,4-oxadiazol-3-yl)-2,3-dihydro-1H-inden-1-yl)-2-methyloxazole-5-carboxamide], for which the “CDMF75 IC15” value worked out at 1.4 µM and the IC50 came out at 6.7 µM.

Regarding `[2H]C([2H])([2H])c1nc(-c2ccc3c(c2)CC[C@H]3NC(=O)c2oncc2C)no1` [Compound 248, (R)-4-methyl-N-(5-(5-(methyl-d3)-1,2,4-oxadiazol-3-yl)-2,3-dihydro-1H-inden-1-yl)isoxazole-5-carboxamide], the “CDMF75 IC15” value turned out to be 0.4 µM and the IC50 is 1.5 µM.

In the case of `CCc1nc(-c2ccc3c(c2)CC[C@H]3NC(=O)c2ccccn2)no1` [Compound 623, (R)-N-(5-(5-ethyl-1,2,4-oxadiazol-3-yl)-2,3-dihydro-1H-inden-1-yl)picolinamide], the “CDMF75 IC15” value worked out at 0.4 µM and the IC50 worked out at 1.6 µM.

Consider `CCc1cc(-c2ccc3c(c2)OC[C@H]3NC(=O)c2ccnc(C)c2)no1` [Compound 425, (S)-N-(6-(5-ethylisoxazol-3-yl)-2,3-dihydrobenzofuran-3-yl)-2-methylisonicotinamide], for which the “CDMF75 IC15” value was determined as 0.3 µM and the IC50 worked out at 1.2 µM.

With `CCc1nc(-c2ccc3c(c2)CC[C@H]3NC(=O)c2ccn(CCO)n2)no1` [Compound 608, (R)-N-(5-(5-ethyl-1,2,4-oxadiazol-3-yl)-2,3-dihydro-1H-inden-1-yl)-1-(2-hydroxyethyl)-1H-pyrazole-3-carboxamide], the “CDMF75 IC15” value worked out at 1.2 µM and the IC50 was 4.6 µM.

Regarding `CCc1nc(-c2ccc3c(c2)CC[C@H]3NC(=O)c2csc(C)n2)no1` [Compound 590, (R)-N-(5-(5-ethyl-1,2,4-oxadiazol-3-yl)-2,3-dihydro-1H-inden-1-yl)-2-methylthiazole-4-carboxamide], the “CDMF75 IC15” value came to 1.4 µM and the 50% inhibitory concentration (IC50) was 6.8 µM.

With `CC1(C(=O)N[C@@H]2CCc3cc(-c4noc(C5CC5)n4)ccc32)CC1` [Compound 330, (R)-N-(5-(5-cyclopropyl-1,2,4-oxadiazol-3-yl)-2,3-dihydro-1H-inden-1-yl)-1-methylcyclopropane-1-carboxamide], the “CDMF75 IC15” value turned out to be 3.8 µM and the 50% inhibitory concentration (IC50) came to 17.7 µM.

As for `COC(=O)N[C@@H]1CCc2cc(-c3noc(C(C)C)n3)ccc21` [Compound 307, methyl (R)-(5-(5-isopropyl-1,2,4-oxadiazol-3-yl)-2,3-dihydro-1H-inden-1-yl)carbamate], the “CDMF75 IC15” value was 0.6 µM and the IC50 stood at 2.9 µM.

In the case of `Cn1cc(C(=O)N[C@@H]2COc3cc(-c4noc(C(F)F)n4)ccc32)cn1` [Compound 218, (S)-N-(6-(5-(difluoromethyl)-1,2,4-oxadiazol-3-yl)-2,3-dihydrobenzofuran-3-yl)-1-methyl-1H-pyrazole-4-carboxamide], the “CDMF75 IC15” value was 0.5 µM and the IC50 was determined as 1.6 µM.

`CC#Cc1ccc2c(c1)CC[C@H]2NC(=O)c1ccnn1C` [Compound 452, (R)-1-methyl-N-(5-(prop-1-yn-1-yl)-2,3-dihydro-1H-inden-1-yl)-1H-pyrazole-5-carboxamide]: the “CDMF75 IC15” value worked out at 4.3 µM and the IC50 stood at 20.3 µM.

Regarding `CCc1nc(-c2ccc3c(c2)CC[C@H]3NC(=O)c2ncc(C)o2)no1` [Compound 636, (R)-N-(5-(5-ethyl-1,2,4-oxadiazol-3-yl)-2,3-dihydro-1H-inden-1-yl)-5-methyloxazole-2-carboxamide], the “CDMF75 IC15” value is 0.6 µM and the IC50 amounted to 2.2 µM.

With `[2H]C([2H])([2H])c1nc(-c2ccc3c(c2)CC[C@H]3NC(=O)OC)no1` [Compound 308, methyl (R)-(5-(5-(methyl-d3)-1,2,4-oxadiazol-3-yl)-2,3-dihydro-1H-inden-1-yl)carbamate], the “CDMF75 IC15” value stood at 0.7 µM and the IC50 is 2.8 µM.

`Cc1nc(-c2ccc3c(c2)CCC3NC(=O)c2oc(C)nc2C)no1` (stereo not shown) [Compound 53, 2,4-dimethyl-N-(5-(5-methyl-1,2,4-oxadiazol-3-yl)-2,3-dihydro-1H-inden-1-yl)oxazole-5-carboxamide]: the “CDMF75 IC15” value was 2.5 µM and the IC50 came to 8.8 µM.

As to `Cc1nc(-c2ccc3c(c2)OC[C@H]3NC(=O)c2cccc(CO)c2)no1` [Compound 717, (S)-3-(hydroxymethyl)-N-(6-(5-methyl-1,2,4-oxadiazol-3-yl)-2,3-dihydrobenzofuran-3-yl)benzamide], the “CDMF75 IC15” value was 0.4 µM and the IC50 came out at 1.8 µM.

For `Cn1nnc(C(=O)N[C@@H]2COc3cc(-c4noc(C(F)F)n4)ccc32)n1` [Compound 198, (S)-N-(6-(5-(difluoromethyl)-1,2,4-oxadiazol-3-yl)-2,3-dihydrobenzofuran-3-yl)-2-methyl-2H-tetrazole-5-carboxamide], the “CDMF75 IC15” value is 2.0 µM and the IC50 was 7.2 µM.

On to `CCc1nc(-c2ccc3c(c2)CC[C@H]3NC(=O)c2ccnnc2C)no1` [Compound 637, (R)-N-(5-(5-ethyl-1,2,4-oxadiazol-3-yl)-2,3-dihydro-1H-inden-1-yl)-3-methylpyridazine-4-carboxamide], for which the “CDMF75 IC15” value was found to be 3.1 µM and the IC50 was 11.6 µM.

With `Cc1ncc(C(=O)N[C@@H]2CCc3cc(-c4nc(C(F)F)no4)ccc32)o1` [Compound 215, (R)-N-(5-(3-(difluoromethyl)-1,2,4-oxadiazol-5-yl)-2,3-dihydro-1H-inden-1-yl)-2-methyloxazole-5-carboxamide], the “CDMF75 IC15” value was determined as 3.0 µM and the IC50 is 12.4 µM.

For `COCc1nc(-c2ccc3c(c2)CC[C@H]3NC(=O)c2cnc(C)s2)no1` [Compound 696, (R)-N-(5-(5-(methoxymethyl)-1,2,4-oxadiazol-3-yl)-2,3-dihydro-1H-inden-1-yl)-2-methylthiazole-5-carboxamide], the “CDMF75 IC15” value worked out at 1.1 µM and the IC50 came to 4.2 µM.

`CCc1nc(-c2ccc3c(c2)CC[C@H]3NC(=O)c2cnn(C[C@H](C)O)c2)no1` [Compound 541, N-[(1R)-5-(5-ethyl(1,2,4-oxadiazol-3-yl))indanyl][1-((2S)-2-hydroxypropyl)pyrazol-4-yl]carboxamide]: the “CDMF75 IC15” value is 1.2 µM and the half-maximal inhibitory concentration (IC50) came to 5.2 µM.

On to `Cn1nccc1C(=O)N[C@@H]1CCc2cc(-c3noc(C4(C)CC4)n3)ccc21` [Compound 459, (R)-1-methyl-N-(5-(5-(1-methylcyclopropyl)-1,2,4-oxadiazol-3-yl)-2,3-dihydro-1H-inden-1-yl)-1H-pyrazole-5-carboxamide], for which the “CDMF75 IC15” value is 0.4 µM and the IC50 was determined as 1.2 µM.

On to `COCc1nc(-c2ccc3c(c2)CC[C@H]3NC(=O)c2ccnc(C)c2)no1` [Compound 176, (R)-N-(5-(5-(methoxymethyl)-1,2,4-oxadiazol-3-yl)-2,3-dihydro-1H-inden-1-yl)-2-methylisonicotinamide], for which the “CDMF75 IC15” value was 1.2 µM and the IC50 was 4.5 µM.

`Cc1nn(C)cc1C(=O)NC1COc2cc(-c3noc(C(F)F)n3)ccc21` (stereo not shown) [Compound 207, N-(6-(5-(difluoromethyl)-1,2,4-oxadiazol-3-yl)-2,3-dihydrobenzofuran-3-yl)-1,3-dimethyl-1H-pyrazole-4-carboxamide]: the “CDMF75 IC15” value stood at 1.0 µM and the IC50 is 3.6 µM.

In the case of `Cc1nn(C)cc1C(=O)NC1CCc2cc(-c3noc(CO)n3)ccc21` (stereo not shown) [Compound 79, N-(5-(5-(hydroxymethyl)-1,2,4-oxadiazol-3-yl)-2,3-dihydro-1H-inden-1-yl)-1,3-dimethyl-1H-pyrazole-4-carboxamide], the “CDMF75 IC15” value was 4.6 µM and the IC50 came out at 22.7 µM.

Regarding `Cc1cc(C(=O)N[C@@H]2CCc3cc(-c4noc(C(F)F)n4)ccc32)on1` [Compound 679, (R)-N-(5-(5-(difluoromethyl)-1,2,4-oxadiazol-3-yl)-2,3-dihydro-1H-inden-1-yl)-3-methylisoxazole-5-carboxamide], the “CDMF75 IC15” value turned out to be 0.8 µM and the concentration for half-maximal inhibition (IC50) was found to be 3 µM.

For the compound `Nc1cc(C(=O)NC2CCc3cc(-c4noc(C(F)F)n4)ccc32)ccn1` (stereo not shown) [Compound 99, 2-amino-N-(5-(5-(difluoromethyl)-1,2,4-oxadiazol-3-yl)-2,3-dihydro-1H-inden-1-yl)isonicotinamide], the “CDMF75 IC15” value turned out to be 0.6 µM and the IC50 was 2.6 µM.
